In PMC11642940, “A New Demand for Improved Selectivity and Potency of Cyanine Dyes as Antiproliferative Agents Against Colorectal Cancer Cells” (Molecules, 2024):
Read-outs that look alike come from different tables or passages of the source.

Key:
[1] = MTT cell viability assay, NHDF; assay type: cell-based, human; settings: human, 10 µM, 72 h, mean ± SD, read-out: cell viability percentage in relation to control, NHDF
Protocol: (§4) The cell lines used in this study (Caco-2, MCF-7, PC-3, and NHDF) were obtained from the American Type Culture Collection (ATCC, Manassas, VA, USA) and cultured in 75 cm^2 culture flasks at 37 °C in a humidified atmosphere with 5% CO2 in a LEEC Culture Safe Precision CO2 Incubator. PC-3 cells were grown in Roswell Park Memorial Institute (RPMI) medium supplemented with 10% of inactivated Fetal Bovine Serum (FBS) and 1% of an antibiotic mixture (Sp; 10,000 U/mL of penicillin G and 100 mg/mL of streptomycin). MCF-7 and Caco-2 cell lines were both cultured using Dulbecco’s Modified Eagle Medium (DMEM). However, the medium for MCF-7 cells was complemented with 10% of inactivated FBS and 1% of antibiotic/antimycotic mixture (Ab; 10,000 U/mL of penicillin G, 100 mg/mL of streptomycin and 25 µg/mL of amphotericin B), and the medium for Caco-2 cells was supplemented with 20% of inactivated FBS and 1% of Sp. Finally, RPMI medium supplemented with 10% FBS, 2 mM of L-glutamine, 10 mM of 4-(2-hydroxyethyl)-1-piperazineethanesulfonic acid (HEPES), 1 mM of sodium pyruvate, and 1% of Ab was used to culture NHDF cells. The culture media were renewed every two to three days until near confluence was achieved. Then, cells were detached using a solution of 0.125 g/L of trypsin and 0.02 g/L of ethylenediaminetetracetic acid (EDTA), counted by the trypan blue method, resuspended, and adequately seeded to continue the culture in 75 cm^2 flasks or for the experiments described below. All manipulations were performed in a Labculture Class II A2 Biological Safety Cabinet.

[2] = system: normal human dermal fibroblasts (NHDF); experiment: MTT cell viability assay, NHDF; assay type: cell-based; settings: Homo sapiens, NHDF, read-out: IC50 NHDF
Protocol: as §4

[3] = system: Caco-2 colorectal adenocarcinoma cells; experiment: MTT cell viability assay, Caco-2; settings: Homo sapiens, Caco-2, 72 h; for IC50: read-out: IC50 Caco-2; for viability at 10 µM: read-out: cell viability percentage in relation to control, Caco-2
Protocol: (§1) To evaluate the anticancer potential of monomethine cyanine dyes 1–12, a cell proliferation study was conducted using the 3-(4,5-dimethylthiazol-2-yl)-2,5-diphenyltetrazolium bromide (MTT) assay. For this preliminary evaluation, a concentration of 10 µM for each dye was tested, with the well-established chemotherapy agent 5-fluorouracil (5-FU) serving as a positive control. The assay included normal human dermal fibroblasts (NHDF) as non-tumor cells, alongside tumor cell lines from colorectal (Caco-2), prostate (PC-3), and breast (MCF-7) adenocarcinomas.
(§2) The cell lines used in this study (Caco-2, MCF-7, PC-3, and NHDF) were obtained from the American Type Culture Collection (ATCC, Manassas, VA, USA) and cultured in 75 cm^2 culture flasks at 37 °C in a humidified atmosphere with 5% CO2 in a LEEC Culture Safe Precision CO2 Incubator. PC-3 cells were grown in Roswell Park Memorial Institute (RPMI) medium supplemented with 10% of inactivated Fetal Bovine Serum (FBS) and 1% of an antibiotic mixture (Sp; 10,000 U/mL of penicillin G and […] of streptomycin). MCF-7 and Caco-2 cell lines were both cultured using Dulbecco’s Modified Eagle Medium (DMEM). However, the medium for MCF-7 cells was complemented with 10% of inactivated FBS and 1% of antibiotic/antimycotic mixture (Ab; 10,000 U/mL of penicillin G, […] of streptomycin and 25 µg/mL of amphotericin B), and the medium for Caco-2 cells was supplemented with 20% of inactivated FBS and 1% of Sp. Finally, RPMI medium supplemented with 10% FBS, 2 mM of L-glutamine, 10 mM of 4-(2-hydroxyethyl)-1-piperazineethanesulfonic acid (HEPES), 1 mM of sodium pyruvate, and 1% of Ab was used to culture NHDF cells. The culture media were renewed every two to three days until near confluence was achieved. Then, cells were detached using a solution of 0.125 g/L of trypsin and 0.02 g/L of ethylenediaminetetracetic acid (EDTA), counted by the trypan blue method, resuspended, and adequately seeded to continue the culture in 75 cm^2 flasks or for the experiments described below. All manipulations were performed in a Labculture Class II A2 Biological Safety Cabinet.
(§3) After trypsinization, cells were seeded in 96-well culture plates (100 µL; 2 × 10^4 cells/mL), and after 48 h (for adherence), they were incubated with the compounds under study in the absence of light for a duration of 72 h. Then, the medium was removed, and fresh incomplete culture medium (without FBS and Ab or Sp) and MTT solution [5 mg/mL in phosphate buffer saline (PBS)] were added to each well, followed by 4 h of incubation. After this, the medium containing MTT was removed and DMSO was added to dissolve formazan crystals. The absorbance of each well at 570 nm was determined using a microplate spectrophotometer Bio-Rad (Hercules, CA, USA) xMark. Untreated cells were considered the negative control, and 5-FU, a clinically used drug, was considered the positive control. For data analysis, the relative cell proliferation relative to the negative control cells was calculated. For each cell viability study, at least two independent assays in quadruplicate were performed. Increasing concentrations of the compounds between 0.001 and 100 μM were used to determine the IC50 values.

[4] = MTT cell viability assay, Caco-2; settings: human
Protocol: as §1, §2, §3

[5] = system: PC-3 prostate adenocarcinoma cells; experiment: MTT cell viability assay, PC-3; settings: for viability at 10 µM: read-out: cell viability percentage in relation to control, PC-3; for SI PC-3 (selectivity index versus NHDF): PC-3 versus NHDF
Protocol: as §1, §2, §3

[6] = system: MCF-7 breast adenocarcinoma cells; experiment: MTT cell viability assay, MCF-7; settings: for viability at 10 µM / IC50: Homo sapiens, MCF7, 72 h; for viability at 10 µM: read-out: cell viability percentage in relation to control, MCF-7; for IC50: read-out: IC50 MCF-7, MCF-7, 72 h incubation, MTT; for SI MCF-7 (selectivity index versus NHDF): MCF-7 versus NHDF, 72 h
Protocol: as §1, §2, §3

[7] = system: Caco-2 cells; experiment: Caco-2 morphological analysis (optical microscopy); settings: 24 h
Protocol: Sorbitol and 5-FU were used as positive controls, while untreated cells served as the negative control.
Caco-2 cells near confluency were trypsinized, counted, and then seeded at 3 × 10^4 cells/mL (3 mL) in 35 mm cell culture dishes previously treated for tissue culture. After cell adherence (48 h), they were incubated with solutions under study for 72 h in the absence of light. The cellular morphology was verified every 24 h using a CKX41 SF inverted microscope (Olympus, Tokyo, Japan) with 10, 20, or 40× objectives. A DC6 V digital camera (Olympus, Tokyo, Japan) coupled to the microscope was used to capture cell imaging. The morphology of cells in the presence or absence of treatments was compared.

[8] = system: Caco-2 cells; experiment: Apoptosis (sub-G1 events) by PI staining and flow cytometry; assay type: cell-based, human; settings: Caco-2, 600 mM, incubated for 24 h
Protocol: Given that apoptosis is a common programmed mechanism regulating cell death, characterized by DNA fragmentation and an increase in sub-G1 events, we employed the method described by Riccardi and Nicolleti to assess potential apoptosis induction using flow cytometry. Cyanine dyes 5 and 10 were tested at concentrations of 1 µM and 10 µM, respectively. As positive controls for apoptosis, 600 mM sorbitol and 10 µM 5-FU were used, with untreated cells serving as the negative control. […] In contrast, dye 10 induced a slight increase in apoptosis, reaching 1.7%. […] Apoptotic bodies were more evident in cells treated with dye 5 compared to dye 10, which is further supported by the slightly higher apoptosis induction in this assay.
Apoptosis (sub-G1 events) and cell cycle distribution were evaluated by propidium iodide (PI) staining and flow cytometry, as described by Riccardi and Nicolleti. […] Untreated cells were used as the negative control, and sorbitol and 5-FU were used as positive controls. After incubation, the supernatant was collected in a centrifuge tube, cells were washed with PBS, trypsinized and wells were once again washed with PBS. This cell suspension was maintained on ice, centrifugated at 300 g for 5 min, and then the pellet was resuspended in 0.5 mL of PBS. Cells were fixed by adding 4.5 mL of 70% ethanol cooled at −20 °C on ice and were stored at −20 °C for a period ranging from one to a few days. On the day of flow cytometry analysis, PBS was added to the fixed cell tubes, followed by centrifugation and removal of the supernatant. The pellet was resuspended in 0.5 mL of PBS and 0.5 mL of DNA extraction solution (192 mL of 0.2 M sodium phosphate and 8 mL of […], pH 7.8). After incubation for 5 min, the cells were once again centrifuged, the supernatant was removed, and the pellet was resuspended in 0.3 mL of staining solution (20 µg/mL of PI and 0.2 mg/mL of DNase-free RNase in PBS). Using a FACSCalibur flow cytometer (Becton Dickinson, Franklin Lakes, NJ, USA) with a 488 nm laser line, a minimum of 20,000 events were acquired and recorded using the BD CellQuestTM Pro 4.0.2 software, and analyzed with FlowJo 10.5.3 software. To exclude debris and necrotic cells, events with a lower diameter (forward scatter; FCS) and PI fluorescence (FL3) than the hypodiploid apoptotic cells were eliminated (Figures S1 and S2). Two independent experiments were performed. A Student’s t-test was performed to evaluate the statistical significance of the results.

[9] = normal human dermal fibroblasts (NHDF)
[10] = 72 h incubation, MTT, absence of light
[11] = Caco-2, SI Caco-2 (selectivity index, cancer versus non-cancer cell line NHDF), Caco-2 versus NHDF, 72 h
[12] = Homo sapiens, 72 h, read-out: IC50 PC-3, PC-3, 72 h incubation, MTT

## CCN1C(=Cc2n(CC)c3ccc([N+](=O)[O-])cc3[n+]2CC)Sc2ccccc21.[I-] [Dye 9, 1,3-Diethyl-2-((3-ethylbenzo[d]thiazol-2(3H)-ylidene)methyl)-5-nitro-1H-benzo[d]imidazol-3-ium iodide]
[1]; [9]
  viability at 72 h, 10 µM: 38.2 ± 4.27%
[2]; [10]
  IC50: 24500 nM
[3]
  IC50: 1400 nM
  viability at 10 µM: 16.4 ± 0.81%
[4]; [11]
  selectivity ratio at 72 h: 17.5
other
  melting point: 219 to 220 °C
[5]; Homo sapiens, 72 h
  viability at 10 µM: 39.5 ± 7.97%
[6]
  viability at 10 µM: 52.9 ± 8.99%

## CN1C=C/C(=C/c2ccc3ccccc3[n+]2C)c2ccccc21 [Dye 12, 1-Methyl-4-((1-methylquinolin-2(1H)-ylidene)methyl)quinolin-1-ium 4-methylbenzenesulfonate]
[1]
  viability at 72 h, 10 µM: 5.72 ± 1.91%
[2]; 72 h
  IC50: 630 nM
[3]
  IC50: 730 nM
  viability at 10 µM: 10.7 ± 0.43%
[4]; Caco-2
  selectivity ratio at 72 h: 0.9
[5]; Homo sapiens, 72 h
  viability at 10 µM: 9.02 ± 3.29%
[6]
  viability at 10 µM: 4.81 ± 1.56%

## CCN1C(=Cc2sc3ccc(NC(C)=O)cc3[n+]2CC)Sc2ccccc21.Cc1ccc(S(=O)(=O)[O-])cc1 [Dye 7, 5-Acetamido-3-ethyl-2-((3-ethylbenzo[d]thiazol-2(3H)-ylidene)methyl)benzo[d]thiazol-3-ium 4-methylbenzenesulfonate]
[1]; [9]
  viability at 72 h, 10 µM: 29 ± 4.76%
[2]; [10]
  IC50: 11600 nM
[3]
  IC50: 140 nM
  viability at 10 µM: 9.89 ± 1.38%
[4]; [11]
  selectivity ratio at 72 h: 80.5
[5]; [12]
  IC50: 3560 nM
[5]; Homo sapiens, 72 h
  viability at 10 µM: 7.97 ± 4%
[5]; 72 h
  SI PC-3 (selectivity index versus NHDF): 3.3
[6]
  IC50: 380 nM
  viability at 10 µM: 11.8 ± 4.3%
  SI MCF-7 (selectivity index versus NHDF): 30.2

## CCN1C(=Cc2sc3ccc(N)cc3[n+]2CC)Sc2ccccc21 [Dye 8, 5-Amino-3-ethyl-2-((3-ethylbenzo[d]thiazol-2(3H)-ylidene)methyl)benzo[d]thiazol-3-ium iodide]
[1]; [9]
  viability at 72 h, 10 µM: 5.52 ± 0.69%
[2]; [10]
  IC50: 950 nM
[3]
  IC50: 740 nM
  viability at 10 µM: 5.21 ± 0.89%
[4]; [11]
  selectivity ratio at 72 h: 1.3
[5]; Homo sapiens, 72 h
  viability at 10 µM: 4.12 ± 1.71%
[6]
  viability at 10 µM: 6.18 ± 1.48%

## CCCCCN1C(=Cc2sc3ccccc3[n+]2C)Sc2ccccc21.[I-] [Dye 1, 3-Methyl-2-((3-pentylbenzo[d]thiazol-2(3H)-ylidene)methyl)benzo[d]thiazol-3-ium iodide]
[1]; [9]
  viability at 72 h, 10 µM: 0.84 ± 0.26%
[2]; [10]
  IC50: 550 nM
[3]
  IC50: 360 nM
  viability at 10 µM: 1.37 ± 0.08%
[4]; [11]
  selectivity ratio at 72 h: 1.5
other
  melting point: 254 to 258 °C
[5]; Homo sapiens, 72 h
  viability at 10 µM: 0.56 ± 0.12%
[6]
  viability at 10 µM: 0.87 ± 1.05%

## CN1C(=Cc2sc3ccccc3[n+]2C)Oc2ccccc21.Cc1ccc(S(=O)(=O)[O-])cc1 [Dye 3, 3-Methyl-2-((3-methylbenzo[d]oxazol-2(3H)-ylidene)methyl)benzo[d]thiazol-3-ium 4-methylbenzenesulfonate]
[1]; [9]
  viability at 72 h, 10 µM: 23.9 ± 3.05%
[2]; [10]
  IC50: 7530 nM
[3]
  IC50: 90 nM
  viability at 10 µM: 5.81 ± 0.8%
[4]; [11]
  selectivity ratio at 72 h: 81.2
[5]; [12]
  IC50: 480 nM
[5]; Homo sapiens, 72 h
  viability at 10 µM: 1.81 ± 0.31%
[5]; 72 h
  SI PC-3 (selectivity index versus NHDF): 17.2
[5]; read-out: IC50 PC-3, PC-3, 72 h incubation, MTT
  IC50: 430 nM
[6]
  viability at 10 µM: 3.04 ± 1.08%

## CCN1C(=Cc2sc3cc(N)ccc3[n+]2CC)Sc2ccccc21.[I-] [Dye 11, 6-Amino-3-ethyl-2-((3-ethylbenzo[d]thiazol-2(3H)-ylidene)methyl)benzo[d]thiazol-3-ium iodide]
[1]; [9]
  viability at 72 h, 10 µM: 16.1 ± 2.46%
[2]; [10]
  IC50: 3000 nM
[3]
  IC50: 170 nM
  viability at 10 µM: 9.6 ± 1.47%
[4]; [11]
  selectivity ratio at 72 h: 17.1
[5]; [12]
  IC50: 2100 nM
[5]; Homo sapiens, 72 h
  viability at 10 µM: 10.5 ± 4.24%
[5]; 72 h
  SI PC-3 (selectivity index versus NHDF): 1.4
[6]
  IC50: 330 nM
  viability at 10 µM: 7.65 ± 2.8%
  SI MCF-7 (selectivity index versus NHDF): 9.0

## CCCCCCCCCCN1C(=Cc2sc3ccccc3[n+]2C)Sc2ccccc21.[I-] [Dye 2, 3-Methyl-2-((3-decylbenzo[d]thiazol-2(3H)-ylidene)methyl)benzo[d]thiazol-3-ium iodide]
[1]; [9]
  viability at 72 h, 10 µM: 0.13 ± 0.43%
[2]; [10]
  IC50: 270 nM
[3]
  IC50: 240 nM
  viability at 10 µM: 1.09 ± 0.47%
[4]; [11]
  selectivity ratio at 72 h: 1.1
other
  melting point: 217 to 218 °C
[5]; Homo sapiens, 72 h
  viability at 10 µM: 0.62 ± 0.1%
[6]
  viability at 10 µM: 0.62 ± 0.79%

## CN1C(=Cc2n(C)c3ccccc3[n+]2C)Sc2ccccc21.[I-] [Dye 4, 1,3-Dimethyl-2-((3-methylbenzo[d]thiazol-2(3H)-ylidene)methyl)-1H-benzo[d]imidazol-3-ium iodide]
[1]; [9]
  viability at 72 h, 10 µM: 23.1 ± 1.91%
[2]; [10]
  IC50: 7930 nM
[3]
  IC50: 230 nM
  viability at 10 µM: 7.15 ± 1.08%
[4]; [11]
  selectivity ratio at 72 h: 33.6
other
  melting point: 270 to 272 °C
[5]; [12]
  IC50: 2850 nM
[5]; Homo sapiens, 72 h
  viability at 10 µM: 4.09 ± 0.61%
[5]; 72 h
  SI PC-3 (selectivity index versus NHDF): 2.8
[6]
  viability at 10 µM: 21.6 ± 1.33%

## OC[C@@H](O)[C@@H](O)[C@H](O)[C@@H](O)CO [sorbitol, reference compound]
[7]
  morphological changes of Caco-2 cells: marked increase in apoptotic bodies
[8]
  apoptosis (sub-G1 events), % of cells: 37.9%

## CN1C(=Cc2sc3ccccc3[n+]2C)C=Cc2ccccc21 [Dye 6, 3-Methyl-2-((1-methylquinolin-2(1H)-ylidene)methyl)benzo[d]thiazol-3-ium 4-methylbenzenesulfonate]
[1]; [9]
  viability at 72 h, 10 µM: 4.28 ± 1.24%
[2]; [10]
  IC50: 790 nM
[3]
  IC50: 270 nM
  viability at 10 µM: 1.93 ± 0.78%
[4]; [11]
  selectivity ratio at 72 h: 2.9
[5]; Homo sapiens, 72 h
  viability at 10 µM: 4.98 ± 1.62%
[6]
  viability at 10 µM: 2.49 ± 0.32%
